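Each compound was tested at five concentrations against cells in 96-well plates for 48 hours. At the GI50, growth is halved.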 The source made the active and inactive calls. No stated cut-off is given here; in the data, active = GI50 up to about 1.1 µM and inactive = higher.
Experiments:
Test in all cases: inhibition of tumour cell growth, NCI panel, 48 h
XF498 = system: XF498
KM-20L2 = system: KM-20L2
KM12 = system: KM12
SK-MEL-5 = system: SK-MEL-5
HOP-92 = system: HOP-92
K562 = system: K562
HCC 2998 = system: HCC 2998
SK-MEL-28 = system: SK-MEL-28
Malme-3M = system: Malme-3M
HL-60 = system: HL-60
UACC-257 = system: UACC-257
SF-295 = system: SF-295
SK-MEL-2 = system: SK-MEL-2
COLO 205 = system: COLO 205
M19-MEL = system: M19-MEL
CCRF-CEM = system: CCRF-CEM
SF-268 = system: SF-268
U-251 = system: U-251
SNB-19 = system: SNB-19
HT-29 = system: HT-29
RXF 393 = system: RXF 393
786-0 = system: 786-0
A498 = system: A498
OVCAR-5 = system: OVCAR-5
SN12C = system: SN12C
OVCAR-4 = system: OVCAR-4
M14 = system: M14
UACC-62 = system: UACC-62
NCI-H23 = system: NCI-H23
HCT-15 = system: HCT-15
NCI-H522 = system: NCI-H522
HCT-116 = system: HCT-116
OVCAR-8 = system: OVCAR-8
LXFL 529 = system: LXFL 529
MOLT-4 = system: MOLT-4
A549 = system: A549
SK-OV-3 = system: SK-OV-3
DMS-273 = system: DMS-273
DLD-1 = system: DLD-1
CAKI-1 = system: CAKI-1
RXF 631 = system: RXF 631
SF-539 = system: SF-539
UO-31 = system: UO-31
HOP-62 = system: HOP-62
ACHN = system: ACHN
SNB-75 = system: SNB-75
NCI-H226 = system: NCI-H226
LOX IMVI = system: LOX IMVI
OVCAR-3 = system: OVCAR-3
TK-10 = system: TK-10
NCI-H460 = system: NCI-H460
EKVX = system: EKVX
IGROV-1 = system: IGROV-1
SR = system: SR
SNB-78 = system: SNB-78
HOP-18 = system: HOP-18
SW-620 = system: SW-620
RPMI-8226 = system: RPMI-8226
DMS-114 = system: DMS-114

CCCCC#C[I+]c1ccccc1
GI50 (XF498): 15.3 µM (inactive) | GI50 (KM-20L2): 18.3 µM (inactive) | GI50 (KM12): 14.2 µM (inactive) | GI50 (SK-MEL-5): 17.3 µM (inactive) | GI50 (HOP-92): 11.7 µM (inactive) | GI50 (K562): 15.2 µM (inactive) | GI50 (HCC 2998): 20.1 µM (inactive) | GI50 (SK-MEL-28): 17 µM (inactive) | GI50 (Malme-3M): 14.8 µM (inactive) | GI50 (HL-60): 15.4 µM (inactive) | GI50 (UACC-257): 16.3 µM (inactive) | GI50 (SF-295): 22.4 µM (inactive) | GI50 (SK-MEL-2): 17.7 µM (inactive) | GI50 (COLO 205): 15.4 µM (inactive) | GI50 (M19-MEL): 15.7 µM (inactive) | GI50 (CCRF-CEM): 4.97 µM (inactive) | GI50 (SF-268): 19.9 µM (inactive) | GI50 (U-251): 16.2 µM (inactive) | GI50 (SNB-19): 16.9 µM (inactive) | GI50 (HT-29): 15.9 µM (inactive) | GI50 (RXF 393): 20.1 µM (inactive) | GI50 (786-0): 15.5 µM (inactive) | GI50 (A498): 31 µM (inactive) | GI50 (OVCAR-5): 14.8 µM (inactive) | GI50 (SN12C): 14.5 µM (inactive) | GI50 (OVCAR-4): 14.9 µM (inactive) | GI50 (M14): 15.5 µM (inactive) | GI50 (UACC-62): 17 µM (inactive) | GI50 (NCI-H23): 13.6 µM (inactive) | GI50 (HCT-15): 8.28 µM | GI50 (NCI-H522): 3.53 µM (inactive) | GI50 (HCT-116): 16 µM (inactive) | GI50 (OVCAR-8): 16.1 µM (inactive) | GI50 (LXFL 529): 12.2 µM (inactive) | GI50 (MOLT-4): 3.82 µM (inactive) | GI50 (A549): 17.8 µM (inactive) | GI50 (SK-OV-3): 16.4 µM (inactive) | GI50 (DMS-273): 14.1 µM (inactive) | GI50 (DLD-1): 19.5 µM (inactive) | GI50 (CAKI-1): 14 µM (inactive) | GI50 (RXF 631): 9.71 µM (inactive) | GI50 (SF-539): 22.4 µM (inactive) | GI50 (UO-31): 16.4 µM (inactive) | GI50 (HOP-62): 21.5 µM (inactive) | GI50 (ACHN): 17.2 µM (inactive) | GI50 (SNB-75): 15.6 µM (inactive) | GI50 (NCI-H226): 15.5 µM (inactive) | GI50 (LOX IMVI): 12.3 µM (inactive) | GI50 (OVCAR-3): 16 µM (inactive) | GI50 (TK-10): 15.1 µM (inactive) | GI50 (NCI-H460): 11.3 µM (inactive) | GI50 (EKVX): 15.6 µM (inactive) | GI50 (IGROV-1): 19.9 µM (inactive) | GI50 (SR): 15.1 µM (inactive) | GI50 (SNB-78): 21.8 µM (inactive) | GI50 (HOP-18): 14.5 µM (inactive)

Ic1cc2c(cc1C1SCCCS1)OCO2
GI50 (SW-620): > 100 µM (inactive) | GI50 (KM-20L2): > 100 µM (inactive) | GI50 (KM12): > 100 µM (inactive) | GI50 (SK-MEL-5): > 100 µM (inactive) | GI50 (HOP-92): > 100 µM (inactive) | GI50 (K562): > 100 µM (inactive) | GI50 (HCC 2998): > 100 µM (inactive) | GI50 (SK-MEL-28): > 100 µM (inactive) | GI50 (Malme-3M): > 100 µM (inactive) | GI50 (HL-60): > 100 µM (inactive) | GI50 (UACC-257): > 100 µM (inactive) | GI50 (SF-295): > 100 µM (inactive) | GI50 (SK-MEL-2): > 100 µM (inactive) | GI50 (COLO 205): > 100 µM (inactive) | GI50 (M19-MEL): > 100 µM (inactive) | GI50 (CCRF-CEM): > 100 µM (inactive) | GI50 (SF-268): > 100 µM (inactive) | GI50 (U-251): > 100 µM (inactive) | GI50 (SNB-19): > 100 µM (inactive) | GI50 (HT-29): > 100 µM (inactive) | GI50 (RXF 393): > 100 µM (inactive) | GI50 (RPMI-8226): > 100 µM (inactive) | GI50 (786-0): > 100 µM (inactive) | GI50 (A498): > 100 µM (inactive) | GI50 (OVCAR-5): > 100 µM (inactive) | GI50 (DMS-114): > 100 µM (inactive) | GI50 (SN12C): > 100 µM (inactive) | GI50 (OVCAR-4): > 100 µM (inactive) | GI50 (M14): > 100 µM (inactive) | GI50 (UACC-62): > 100 µM (inactive) | GI50 (NCI-H23): 64.7 µM (inactive) | GI50 (HCT-15): > 100 µM | GI50 (NCI-H522): > 100 µM (inactive) | GI50 (HCT-116): > 100 µM (inactive) | GI50 (OVCAR-8): > 100 µM (inactive) | GI50 (LXFL 529): > 100 µM (inactive) | GI50 (MOLT-4): > 100 µM (inactive) | GI50 (A549): > 100 µM (inactive) | GI50 (SK-OV-3): > 100 µM (inactive) | GI50 (DMS-273): > 100 µM (inactive) | GI50 (DLD-1): > 100 µM (inactive) | GI50 (CAKI-1): > 100 µM (inactive) | GI50 (RXF 631): > 100 µM (inactive) | GI50 (SF-539): > 100 µM (inactive) | GI50 (UO-31): > 100 µM (inactive) | GI50 (HOP-62): > 100 µM (inactive) | GI50 (ACHN): > 100 µM (inactive) | GI50 (SNB-75): > 100 µM (inactive) | GI50 (NCI-H226): > 100 µM (inactive) | GI50 (LOX IMVI): > 100 µM (inactive) | GI50 (OVCAR-3): > 100 µM (inactive) | GI50 (TK-10): > 100 µM (inactive) | GI50 (NCI-H460): > 100 µM (inactive) | GI50 (EKVX): > 100 µM (inactive) | GI50 (IGROV-1): > 100 µM (inactive) | GI50 (SR): > 100 µM (inactive) | GI50 (SNB-78): > 100 µM (inactive) | GI50 (HOP-18): > 100 µM (inactive)

COc1cc2c(cc1OC)C(Cl)C(c1ccc(Cl)cc1)=C2Cl (configuration not stated)
GI50 (SW-620): 18.7 µM (inactive) | GI50 (XF498): 3.45 µM (inactive) | GI50 (KM-20L2): 18.1 µM (inactive) | GI50 (SK-MEL-5): 14.4 µM (inactive) | GI50 (HOP-92): 12.6 µM (inactive) | GI50 (K562): 7.66 µM (inactive) | GI50 (SK-MEL-28): 19.1 µM (inactive) | GI50 (Malme-3M): 22 µM (inactive) | GI50 (HL-60): 11.4 µM (inactive) | GI50 (SF-295): 14.5 µM (inactive) | GI50 (SK-MEL-2): 16 µM (inactive) | GI50 (COLO 205): 16.8 µM (inactive) | GI50 (M19-MEL): 17.1 µM (inactive) | GI50 (CCRF-CEM): 6.15 µM (inactive) | GI50 (SF-268): > 10 µM (inactive) | GI50 (U-251): 13.7 µM (inactive) | GI50 (SNB-19): 27.2 µM (inactive) | GI50 (HT-29): 13.3 µM (inactive) | GI50 (RPMI-8226): 9.02 µM (inactive) | GI50 (A498): 18.6 µM (inactive) | GI50 (DMS-114): 11.9 µM (inactive) | GI50 (SN12C): 17.5 µM (inactive) | GI50 (M14): 15.4 µM (inactive) | GI50 (UACC-62): 12.5 µM (inactive) | GI50 (NCI-H23): 14.2 µM (inactive) | GI50 (HCT-15): 14.5 µM | GI50 (NCI-H522): 12 µM (inactive) | GI50 (OVCAR-8): 19.3 µM (inactive) | GI50 (LXFL 529): 4.23 µM (inactive) | GI50 (MOLT-4): 6.73 µM (inactive) | GI50 (SK-OV-3): 28.5 µM (inactive) | GI50 (DMS-273): 17.7 µM (inactive) | GI50 (DLD-1): 16.3 µM (inactive) | GI50 (CAKI-1): 17.3 µM (inactive) | GI50 (RXF 631): 21.3 µM (inactive) | GI50 (SF-539): 17.1 µM (inactive) | GI50 (UO-31): 16.8 µM (inactive) | GI50 (ACHN): 15.2 µM (inactive) | GI50 (SNB-75): 19.1 µM (inactive) | GI50 (NCI-H226): 22 µM (inactive) | GI50 (LOX IMVI): 12.1 µM (inactive) | GI50 (OVCAR-3): 16.5 µM (inactive) | GI50 (TK-10): 19.6 µM (inactive) | GI50 (NCI-H460): 13.5 µM (inactive) | GI50 (EKVX): 9.86 µM (inactive) | GI50 (IGROV-1): 19.3 µM (inactive) | GI50 (SNB-78): 13 µM (inactive) | GI50 (HOP-18): 15.9 µM (inactive)

From ChEMBL document CHEMBL1201862, “PubChem BioAssay data set” (2004)
